Data taken from patent US12268702B2, “Antitumor pharmaceutical composition comprising azvudine and chemotherapeutic agent” (HENAN GENUINE BIOTECH CO., LTD., priority 2023, dated 2025).
Where “and” joins values, the source holds several entries; their conditions need not be identical. Equal entries are not always repeated.

What was measured:
Format in all cases: in vivo
[1] = tested on: Colo 205 human colon cancer model; test: Colo 205 human colon cancer subcutaneous xenograft tumor model
Protocol: Experimental animals were 68 (48 plus 20 spare mice) BALB/c female nude mice, 7-8 weeks old (the age of mice at the time of tumor cell inoculation) and weighing 15.7-20.7 g, which were purchased from Beijing VitalRiver Experimental Animal Technology Co., Ltd. Breeding environment was SPF grade. The experimental animals were all kept in an independent ventilated box with constant temperature and humidity. The temperature of the breeding room was 20-26° C., the humidity was 40-70%. The breeding room was ventilated 10-20 times per hour. The alternating time of day and night was 12 h/12 h. The mice were continuously supplied with cobalt 60 radiation sterilized mouse complete pellet feed, and had free access to the feed. The mice drank tap water (available after sterilization with high-pressure steam), which was continuously supplied using a water-drinking bottle, and had free access to water. The mouse box was a polysulfone mouse box, which was used after sterilization under high pressure, with a size of 325 mm×210 mm×180 mm.
Colo 205 cells were cultured in RPMI1640 medium containing 10% fetal bovine serum. Colo 205 cells in the exponential growth phase were collected, resuspended in PBS to an appropriate concentration and mixed with Matrigel at a ratio of 1:1. The resulting mixture was used for subcutaneous inoculation of tumor in mice. 5×10^6 Colo 205 cells were subcutaneously inoculated on the right side of female mice. The day of inoculation was defined as Day 0. When the average tumor volume reached 110.26 mm^3, the mice were randomly divided into groups according to tumor size.
Relative tumor proliferation rate, T/C %, refers to the percentage value of the relative tumor volume or tumor weight of the treatment group and the control group at a certain time point, which was calculated as follows:
T/C %=TRTV/CRTV×100% (TRTV: the average RTV of the treatment group; CRTV: the average RTV of the vehicle control group; RTV=Vt/V0, where V0 is the tumor volume of the animal when grouped, and Vt is the tumor volume of the animal after treatment); • or T/C %=TTW/CTW×100% (TTW: the average tumor weight of the treatment group at the end of the experiment; CTW: the average tumor weight of the vehicle control group at the end of the experiment). • Relative tumor inhibition rate, TGI (%), was calculated according to the formula as follows: TGI %=(1−T/C)×100%. (T and C are the relative tumor volumes (RTV) or tumor weights (TW) of the treatment group and the control group at a specific time point).

[2] = tested on: LoVo xenograft tumor model; test: LoVo human colon cancer subcutaneous xenograft tumor model; settings: 21st day of administration, azvudine 1 mpk, capecitabine 400 mpk, combination 1 + 400 mpk; for Tumor volume (mm^3): BALB/c nude mice, p.o. QD x 3 weeks
Protocol: Human colon cancer cells LoVo (Cat. No.: ECACC-87060101) were cultured in vitro as a monolayer in F12K medium containing 10% fetal bovine serum, 100 U/mL penicillin and 100 μg/mL streptomycin, in a 37° C. and 5% CO2 incubator. The cells were routinely digested with trypsin-EDTA and passaged twice a week. When the cell saturation reached 80%-90% and the cell number achieved the requirement, the cells were collected, counted and inoculated.
0.1 mL)(10×10^6) of LoVo cells were subcutaneously inoculated on the right back of each mouse. The grouping administration was started when the average tumor volume reached about 147 mm^3.
The tumor volume changes and the tumor weight changes in each group (on the 21st day of administration) after administration of test drugs for treating BALB/c nude mice with Lovo cell subcutaneous xenograft tumor are shown in Table 5 and Table 6 respectively.

[3] = tested on: OVCAR-8 human ovarian cancer model; test: OVCAR-8 human ovarian cancer subcutaneous xenograft tumor model; settings: azvudine 1 mg/kg, paclitaxel 15 mg/kg, avastin 10 mg/kg, combinations 1 + 15 and 1 + 10 mg/kg; for T/C (%) / TGI (%) / Tumor volume (x ± S): 34th day after grouping; for average tumor volume: 34th day of administration
Protocol: OVCAR-8 cells were cultured in RPMI1640 medium containing 10% fetal bovine serum. OVCAR-8 cells in the exponential growth phase were collected, resuspended in PBS to an appropriate concentration and mixed with Matrigel at a ratio of 1:1. The resulting mixture was used for subcutaneous inoculation of tumor in mice.
1×10^7 OVCAR-8 cells were inoculated subcutaneously on the right side of female mice. When the average tumor volume achieved 174.25 mm^3, the mice were randomly divided into groups according to tumor size.
The experimental protocols for animal experiments in this experiment were reviewed and approved by the CrownBio IACUC committee. During the experiment, the animal experiments were performed in accordance with the requirements of AAALAC. After tumor inoculation was completed, the impact of tumor growth and treatment on normal behavior of animals was routinely monitored, specifically the activity of experimental animals, food intake and water intake, body weight gain or loss (body weight was measured twice a week), eye, hair and other abnormalities. The clinical symptoms observed during the experiment were recorded in the original data. The tumor volume was calculated according to the following formula: tumor volume (mm^3)=½×(a×b^2) (where a represents long diameter and b represents short diameter).
Relative tumor proliferation rate, T/C %, refers to the percentage value of the relative tumor volume or tumor weight of the treatment group and the control group at a certain time point, which was calculated as follows: • T/C %=TRTV/CRTV×100% (TRTV: the average RTV of the treatment group; CRTV: the average RTV of the vehicle control group; RTV=Vt/V0, where V0 is the tumor volume of the animal when grouped, and Vt is the tumor volume of the animal after treatment); • or T/C %=TTW/CTW×100% (TTW: the average tumor weight of the treatment group at the end of the experiment; CTW: the average tumor weight of the vehicle control group at the end of the experiment).
Relative tumor inhibition rate, TGI (%), was calculated according to the formula as follows: TGI %=(1−T/C)×100%. (T and C are the relative tumor volumes (RTV) or tumor weights (TW) of the treatment group and the control group at a specific time point).
To compare tumor volumes of different treatment groups on a given day, first the assumption of homogeneity of variance among all groups was tested using the Bartlett test. When the p-value of Bartlett's test was not less than 0.05, whether all group means were equal was tested using one-way ANOVA. If the p-value of the one-way ANOVA was less than 0.05, pairwise comparisons among all groups were conducted using Tukey's HSD test, or pairwise comparisons between each treatment group and control group were conducted using Dunnett's t-test. When the p-value of Bartlett's test was less than 0.05, whether the medians of all groups were equal was tested using Kruskal Wallis test. If the p-value of the Kruskal Wallis test was less than 0.05, pairwise comparisons among all groups or between each treatment group and control group were conducted using Conover test, and the corresponding p-value correction was performed according to the number of groups in the multiple test.

[4] = tested on: Daudi xenograft tumor model; test: Human Burkitt's lymphoma cell Daudi subcutaneous xenograft tumor model; settings: combination 1 + 50 mg/kg; for Tumor volume (mm^3) on the 27th day: CB 17 SCID mice, QD x 4 weeks, azvudine 1 mg/kg p.o., cyclophosphamide 50 mg/kg i.p.
Protocol: Human Burkitt's lymphoma cells Daudi (Cat. No.: DSMZ-ACC129) were in vitro suspended and cultured in RPMI 1640 medium containing 10% fetal bovine serum, 2 mM glutamine, 100 U/mL penicillin and 100 μg/mL streptomycin, in a 37° C. and 5% CO2 incubator. When the cell saturation achieved 80%-90% and the cell number reached the requirement, the cells were collected, counted and inoculated.
0.2 mL (10×10^6) of Daudi cells (added with Matrigel at a volume ratio of 1:1) were subcutaneously inoculated on the right back of each mouse. The grouping administration was started when the average tumor volume reached about 100 mm^3.
The changes of tumor volume and tumor weight in each group after administration of test drugs for treating CB 17 SCID mice with Daudi cell subcutaneous xenograft tumor are shown in Table 8 and Table 9 respectively.

[5] = tested on: MOLT4 xenograft tumor model; test: Human acute lymphoblastic leukemia MOLT4 cell subcutaneous xenograft tumor model; settings: combination 1 + 50 mg/kg; for Tumor volume (mm^3) on the 28th day: SCID Beige mice, QD x 4 weeks, azvudine 2 mg/kg in Table 10, cyclophosphamide 50 mg/kg i.p.
Protocol: Human acute lymphoblastic leukemia cells MOLT4 (Cat. No.: ECACC-85011413) were in vitro suspended and cultured in RPMI 1640 medium containing 10% fetal bovine serum, 100 U/mL penicillin and 100 μg/mL streptomycin, in a 37° C. and 5% CO2 incubator. When the cell saturation achieved 80%-90% and the cell number reached the requirement, the cells were collected, counted and inoculated.
0.2 mL (10×10^6) of MOLT4 cells (added with Matrigel at a volume ratio of 1:1) were subcutaneously inoculated on the right back of each mouse. The grouping administration was started when the average tumor volume reached about 148 mm^3.
The changes of tumor volume and tumor weight in each group after administration of test drugs for treating SCID Beige mice with MOLT4 cell subcutaneous xenograft tumor are shown in Table 10 and Table 11.

[6] = based on tumor volume, 25th day after inoculation, p.o. QD x 3 weeks, azvudine 1 mpk, capecitabine 400 mpk, combination 1 + 400 mpk
[7] = based on tumor weight, azvudine 1 mpk, capecitabine 400 mpk, combination 1 + 400 mpk
[8] = based on tumor volume, 27th day, azvudine 1 mg/kg, cyclophosphamide 50 mg/kg
[9] = based on tumor volume, 28th day, azvudine 2 mg/kg in Table 10, cyclophosphamide 50 mg/kg

Compound: CCCCCOC(=O)Nc1nc(=O)n([C@@H]2O[C@H](C)[C@@H](O)[C@H]2O)cc1F [Capecitabine, capecitabine]
- Tumor volume ([1]; 25th day after inoculation (20th day after grouping), BALB/c nude mice, p.o. QD x 3 weeks, azvudine 1 mpk, capecitabine 400 mpk, combination 1 + 400 mpk): 264.96 ± 38.65(6)
- average tumor volume ([1]; 25th day after tumor inoculation (20th day after grouping), azvudine 1 mg/kg, capecitabine 400 mg/kg, combination 1 + 400 mg/kg): 264.96 mm^3
- T/C (%) [1, 6]: 18.07%
- TGI (%) [1, 6]: 81.93%
- T/C (%) [1, 7]: 85.92%
- TGI [1, 7]: 14.08
- Tumor weight (mg) ([1]; end of experiment, p.o. QD x 3 weeks, azvudine 1 mpk, capecitabine 400 mpk, combination 1 + 400 mpk): 193.35 ± 28.54(6) mg
- Tumor volume (mm^3) [2]: 919 ± 190 mm^3
- Tumor volume (mm^3) ([2]; listed as capecitabine): 919 mm^3
- Tumor weight [2]: 0.893 ± 0.173 g
- T/C (%) ([2]; based on tumor volume): 60.94%
- TGI (%) ([2]; based on tumor volume): 42.11%
- TGI (%) ([2]; based on tumor volume, listed as capecitabine): 42.11% and 42.1%
- T/C (%) ([2]; based on tumor weight): 63.27%

Compound: Avastin: positive drug avastin
- T/C (%) [3]: 82.30%
- TGI (%) [3]: 17.70%
- Tumor volume (x ± S) [3]: 456.04 ± 110.65(6)
- average tumor volume [3]: 456.04 mm^3

Compound: CC(=O)O[C@H]1C(=O)[C@@]2(C)[C@H]([C@H](OC(=O)c3ccccc3)[C@]3(O)C[C@H](OC(=O)[C@H](O)[C@@H](NC(=O)c4ccccc4)c4ccccc4)C(C)=C1C3(C)C)[C@]1(OC(C)=O)CO[C@@H]1C[C@@H]2O [Paclitaxel, paclitaxel]
- T/C (%) [3]: 73.51%
- TGI (%) [3]: 26.49%
- Tumor volume (x ± S) [3]: 403.40 ± 69.43(6)
- TGI (%) ([3]; listed as paclitaxel): 26.49% and 26.5%
- average tumor volume [3]: 403.40 mm^3

Compound: O=P1(N(CCCl)CCCl)NCCCO1 (centres unmarked) [Cyclophosphamide, cyclophosphamide]
- Tumor volume (mm^3) on the 27th day ([4]; 27th day of administration): 263 ± 54 mm^3
- Tumor volume (mm^3) on the 27th day ([4]; 27th day of administration, listed as cyclophosphamide): 263 mm^3
- Tumor weight (g) (On the 27th day) ([4]; 27th day of administration, azvudine 1 mg/kg, cyclophosphamide 50 mg/kg): 0.343 ± 0.066 g
- T/C (%) [4, 8]: 8.83%
- TGI (%) [4, 8]: 94.17%
- T/Cweight (%) ([4]; based on tumor weight, 27th day, azvudine 1 mg/kg, cyclophosphamide 50 mg/kg): 11.49%
- Tumor volume (mm^3) on the 28th day ([5]; 28th day of administration): 716 ± 76 mm^3
- Tumor volume (mm^3) on the 28th day ([5]; 28th day of administration, listed as cyclophosphamide CTX): 716 mm^3
- Tumor weight (g) (On the 28th day) ([5]; 28th day of administration, azvudine 1 mg/kg, cyclophosphamide 50 mg/kg): 0.822 ± 0.065 g
- T/C (%) [5, 9]: 24.53%
- TGI (%) [5, 9]: 79.34%
- T/Cweight (%) ([5]; based on tumor weight, 28th day, azvudine 1 mg/kg, cyclophosphamide 50 mg/kg): 27.65%
